The subject of data set [1] is Malassezia furfur (Pityrosporum ovale) MTCC 1374. Nature of the data set: MIC by macrobroth double dilution (NCCLS). Type of data set: cell-based. How it is done:
(§1) MIC value—is the lowest concentration of the antimicrobial agent required to inhibit growth of the microorganism was determined by the macrobroth double dilution method as per the NCCLS guidelines. (Reference Method for broth dilution antifungal susceptibility testing of Yeasts, Approved Standard; M27A, Vol. 17, No. 9, 1997 & Methods for dilution antimicrobial susceptibility tests for bacteria that grow aerobically; Approved Standard—5th Ed., M7-A5, Vol. 20, No. 2, 2000. National Committee for Clinical Laboratory Standards, Wayne, Pa.).
(§2) The test substances viz., TCS, CMB, ZPTO, KTZ, LGO, Citral, Nerol & Geraniol were prepared as stock solutions. Weighed 10 mg of TCS, CMB, ZPTO, & KTZ individually and dissolved in 1 ml of solvent (IN NaOH for TCS and DMSO for CMB, ZPTO & KTZ) and diluted in 19 ml SDB. The concentration of the prepared substances was 500 μg/ml. Similarly, weighed 400 mg of LGO, Citral, Nerol & Geraniol individually and dissolved in 2 ml DMSO and diluted in 18 ml SDB. The concentration of LGO, Citral, Nerol & Geraniol was 20000 μg/ml. All test solutions were prepared afresh prior to determination of MIC.
(§3) S. aureus, S. epidermidis and B. subtilis were cultured in Mueller Hinton Agar (MHA) for 24 hrs. at 37° C. 1-2 colonies were suspended in MHB overnight at 37° C. C. albicans and A. niger were cultured in Sabauraud Dextrose Agar (SDA) at 28° C. for 24 hrs and 4 days respectively. 1-2 colonies of C. albicans was suspended in SDB and cultured overnight at 28° C. Aspergillus spores were washed with physiological saline prior to testing. M. furfur was cultured in SDA with 1% Tween 80 for 72 hrs at 32° C. Colonies were suspended in SDB with 1% Tween 80 and incubated at 32° C. M. restricta was cultured in Dixon agar at 32° C. for 3-4 days. Colonies were suspended in saline prior to testing.
(§4) Colonies suspended in broth/saline were determined for counts photometrically. (Hammer K A, et al.: Antimicrob. Agents Chemo., (2000), 44(2): 467-469). The organisms were diluted such that the final concentration was 1×10^6 cfu/ml for S. aureus, S. epidermidis and B. subtilis, 1×10^5 cfu/ml for C. albicans and A. niger and 2×10^3 cfu/ml for M. furfur and M. restricta.
(§5) Double fold serial dilutions were done with the test substance, such that the final concentration of TCS was between 250 μg/ml and 0.03 μg/ml; and that of functionalized hydrocarbon (Citral, Nerol, Geraniol) and/or mixtures containing such functionalized hydrocarbons (LGO) was between 10000 μg/ml-19.53 μg/ml. Inoculated organisms were added to the tubes and required controls were also set up in the assay to rule out contamination/inactivation of the test substance.
(§6) Tubes were incubated for 24 hrs at 37° C. for S. aureus, S. epidermidis and B. subtilis; at 28° C. for C. albicans; for 48 hrs at 28° C. for A. niger, 32° C. for M, furfur and M. restricta. At the end of the incubation period, 10 μl aliquots from each tube were spot inoculated onto Nutrient agar (for bacteria), SDA (for C. albicans & A. niger), SDA with 1% Tween 80 for M. furfur and Dixon Agar for M. restricta. The plates were incubated for 24 hrs at 37° C. (S. aureus, S. epidermidis & B. subtilis), at 28° C. (C. albicans); 3-4 days at 28° C. (A. niger), 48-72 hrs at 32° C. (M. furfur & M. restricta) when the colonies became visible.
(§7) At the end of the incubation period, plates were checked for growth of colonies.
(§8) 140 mg of the sample was dissolved in 2 ml of Dimethyl Sulfoxide (DMSO) and further diluted in 18 ml of SDB. The final concentration of antimicrobial and functionalized hydrocarbon and/or mixtures containing such functionalized hydrocarbons in the mixture was 333.33 μg/ml and 6666.66 μg/ml respectively.
(§9) 205 mg of the sample was dissolved in 2 ml of Dimethyl Sulfoxide (DMSO) and further diluted in 18 ml of SDB. The final concentration of antimicrobial and functionalized hydrocarbon and/or mixtures containing such functionalized hydrocarbons in the mixture was 250 μg/ml and 10000 μg/ml respectively.

The test system of data set [2] is Aspergillus niger MTCC 1344. Nature of the data set: MIC by macrobroth double dilution (NCCLS). Type of data set: cell-based. How it is done:
as §1, §2, §3, §4, §5, §6, §7, §8, §9

Data set [3] has as its system Bacillus subtilis MTCC 441. Nature of the data set: MIC by macrobroth double dilution (NCCLS). Format: cell-based. How it is done: as §1, §2, §3, §4, §5, §6, §7, §8, §9
Data set [4] relates to Candida albicans MTCC 3017. Nature of the data set: MIC by macrobroth double dilution (NCCLS). Type of data set: cell-based. Here is the method:
as §1, §2, §3, §4, §5, §6, §7, §8, §9

Data set [5] deals with Malassezia restricta CBS 7877. As to the kind of experiment: MIC by macrobroth double dilution (NCCLS). Format: cell-based. How it is done: as §1, §2, §3, §4, §5, §6, §7, §8, §9
For data set [6], the system named is Staphylococcus aureus MTCC 96. Nature of the data set: MIC by macrobroth double dilution (NCCLS). Format: cell-based. How it is done:
as §1, §2, §3, §4, §5, §6, §7, §8, §9

For data set [7], the system named is Staphylococcus epidermidis MTCC 435. As to the kind of experiment: MIC by macrobroth double dilution (NCCLS). Format: cell-based. Here is the method:
as §1, §2, §3, §4, §5, §6, §7, §8, §9

For data set [8] the following is noted: Bhargava & Leonard 1996; cited from earlier work.
The mark [9] stands for this setting: Malassezia furfur, MTCC1374, individual ingredient, M. furfur, read-out: MIC.
Setting [10] is: MTCC1344, individual ingredient, A. niger, read-out: MIC.
Setting [11] is: MTCC441, individual ingredient, B. subtilis, read-out: MIC.
The mark [12] stands for this setting: MTCC3017, individual ingredient, C. albicans, read-out: MIC.
Setting [13] is: CBS7877, individual ingredient, M. restricta, read-out: MIC.
Setting [14] is: MTCC96, individual ingredient, S. aureus, read-out: MIC.
Where [15] appears, read: MTCC435, individual ingredient, S. epidermidis, read-out: MIC.

In general, MIC refers to the smallest concentration in the dilution series that meets the test's criterion for growth inhibition.

Converted amounts (≈) assume the structure as drawn. Where two headings read alike, the source gives them in different places.

On to `CC(C)(C)C(=O)C(Oc1ccc(Cl)cc1)n1ccnc1` (stereo not drawn) [CMB, Climbazole], for which the MIC in data set [1] (setting [9]) was determined as 1.95 µg/mL (≈ 6.66 µM).

On to `CC(C)=CCCC(C)=CC=O` [Citral], for which the MIC in data set [2] (setting [10]) came out at 625 µg/mL (≈ 4110 µM); in data set [3] (setting [11]), 5000 µg/mL (≈ 32800 µM); in data set [4] (setting [12]) it was 156 µg/mL (≈ 1030 µM); in data set [1] (setting [9]), 39.1 µg/mL (≈ 257 µM); in data set [5] (setting [13]), 156 µg/mL (≈ 1030 µM); in data set [6] (setting [14]), 312 µg/mL (≈ 2050 µM). Besides, the MIC in data set [7] (setting [15]) was found to be 312 µg/mL (≈ 2050 µM).

Take `CC(C)=CCC/C(C)=C/CO` [Geraniol]: the MIC in data set [2] (setting [10]) was 5000 µg/mL (≈ 32400 µM); in data set [3] (setting [11]), 2500 µg/mL (≈ 16200 µM); in data set [4] (setting [12]), 1250 µg/mL (≈ 8100 µM); in data set [1] (setting [9]), 156 µg/mL (≈ 1010 µM); in data set [5] (setting [13]), 312 µg/mL (≈ 2030 µM); in data set [6] (setting [14]) it was 5000 µg/mL (≈ 32400 µM). For the same molecule, in data set [7] (setting [15]), the MIC was 1250 µg/mL (≈ 8100 µM).

For the molecule `CC(=O)N1CCN(c2ccc(OCC3COC(Cn4ccnc4)(c4ccc(Cl)cc4Cl)O3)cc2)CC1` (stereo not drawn) [KTZ, Ketoconazole], the MIC in data set [1] (setting [9]) worked out at 0.48 µg/mL (≈ 0.903 µM).

For the molecule `CC(C)=CCC/C(C)=C\CO` [Nerol], the MIC in data set [2] (setting [10]) came out at 1250 µg/mL (≈ 8100 µM); in data set [3] (setting [11]), 10000 µg/mL (≈ 64800 µM); in data set [4] (setting [12]), 1250 µg/mL (≈ 8100 µM); in data set [1] (setting [9]) it was 156 µg/mL (≈ 1010 µM); in data set [5] (setting [13]) it was 312 µg/mL (≈ 2030 µM); in data set [6] (setting [14]), 5000 µg/mL (≈ 32400 µM). For the same molecule, the MIC in data set [7] (setting [15]) turned out to be 1250 µg/mL (≈ 8100 µM).

For the molecule `Oc1cc(Cl)ccc1Oc1ccc(Cl)cc1Cl` [TCS, 2,4,4′-trichloro-2′-hydroxydiphenyl ether, reference compound], the minimum inhibitory concentration (MIC) turned out to be 31.2 µg/mL (≈ 108 µM) in data set [2] (MTCC1344); 15.6 µg/mL (≈ 53.9 µM) in data set [3] (MTCC441); 15.6 µg/mL (≈ 53.9 µM) in data set [4] (MTCC3017); 62.5 µg/mL (≈ 216 µM) in data set [1] (Malassezia furfur, MTCC1374); 62.5 µg/mL (≈ 216 µM) in data set [5] (CBS7877); 1.95 µg/mL (≈ 6.73 µM) in data set [6] (MTCC96). In data set [7] (MTCC435), this molecule returned an MIC of 7.81 µg/mL (≈ 27 µM). Also, the “carcinogenic, mutagenic or teratogenic effects” value in data set [8] is reported as “not found to have any carcinogenic, mutagenic or teratogenic effects”. In addition, the “toxicity to humans and other mammals” value in data set [8] is reported as “relatively non-toxic”.

In data set [1] (individual ingredient, M. furfur), Zinc Pyrithione [ZPTO] gave an MIC of 3.9 µg/mL.

Source of the values: patent publication US20090226384A1, “ANTIMICROBIAL COMPOSITION CONTAINING TRICLOSAN AND AT LEAST ONE FUNCTIONALIZED HYDROCARBON” (priority 2006, published 2009).
